# Results as given in ChEMBL document CHEMBL1201862, “PubChem BioAssay data set” (2004).
# Values joined by “and” are separate entries in the source; they are usually repeats but may differ in a detail not shown here. Equal values may be shown once.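 Protocol summary: plate cells (96-well), add compound at 5 concentrations, incubate 48 h, interpolate endpoints linearly. At the GI50, growth is halved.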 Active and inactive are the calls of the source. No stated cut-off is given here; in the data, active = GI50 up to about 1.1 µM and inactive = higher.
# Assays:
# Test in all cases: inhibition of tumour cell growth, NCI panel, 48 h
# [1] = system: DU-145
# [2] = system: Hs-578T
# [3] = system: NCI-H23
# [4] = system: OVCAR-3
# [5] = system: SK-MEL-2
# [6] = system: UACC-257
# [7] = system: CAKI-1
# [8] = system: HOP-92
# [9] = system: UO-31
# [10] = system: NCI/ADR-RES
# [11] = system: MDA-MB-231
# [12] = system: U-251
# [13] = system: SW-620
# [14] = system: SF-295
# [15] = system: BT-549
# [16] = system: NCI-H522
# [17] = system: OVCAR-4
# [18] = system: 786-0
# [19] = system: HL-60
# [20] = system: SK-MEL-5
# [21] = system: LOX IMVI
# [22] = system: K562
# [23] = system: T47D
# [24] = system: M14
# [25] = system: Malme-3M
# [26] = system: SN12C
# [27] = system: PC-3
# [28] = system: HCT-116
# [29] = system: MCF7
# [30] = system: RXF 393
# [31] = system: SK-OV-3
# [32] = system: NCI-H226
# [33] = system: EKVX
# [34] = system: SNB-19
# [35] = system: MOLT-4
# [36] = system: IGROV-1
# [37] = system: HCC 2998
# [38] = system: UACC-62
# [39] = system: MDA-N
# [40] = system: OVCAR-8
# [41] = system: SF-268
# [42] = system: NCI-H460
# [43] = system: ACHN
# [44] = system: CCRF-CEM
# [45] = system: SNB-75
# [46] = system: COLO 205
# [47] = system: HT-29
# [48] = system: RPMI-8226
# [49] = system: SR
# [50] = system: A549
# [51] = system: HCT-15
# [52] = system: OVCAR-5
# [53] = system: MDA-MB-435
# [54] = system: A498
# [55] = system: SF-539
# [56] = system: KM12
# [57] = system: SK-MEL-28
# [58] = system: HOP-62
# [59] = system: TK-10
# [60] = system: M19-MEL
# [61] = system: DMS-273
# [62] = system: LXFL 529
# [63] = system: DLD-1
smiles,measurement,setting,value
O=C(Nc1cccc(NC(=O)C(=O)C2CCC3=C(Sc4ccccc4N3)C2=O)n1)C(=O)C1CCC2=C(Sc3ccccc3N2)C1=O (stereo unspecified),GI50,[1],> 100 µM (inactive)
same,GI50,[2],53 µM (inactive)
same,GI50,[3],68.9 µM (inactive)
same,GI50,[4],> 100 µM (inactive)
same,GI50,[5],> 100 µM (inactive)
same,GI50,[6],> 100 µM (inactive)
same,GI50,[7],38.3 µM (inactive)
same,GI50,[8],> 100 µM (inactive)
same,GI50,[9],47.3 µM (inactive)
same,GI50,[10],40.8 µM (inactive)
same,GI50,[11],> 100 µM (inactive)
same,GI50,[12],45.1 µM (inactive)
same,GI50,[13],40.7 µM (inactive)
same,GI50,[14],42.6 µM (inactive)
same,GI50,[15],79.6 µM (inactive)
same,GI50,[16],74.6 µM (inactive)
same,GI50,[17],18.9 µM (inactive)
same,GI50,[18],91.8 µM (inactive)
same,GI50,[19],39.5 µM (inactive)
same,GI50,[20],41.2 µM (inactive)
same,GI50,[21],73.1 µM (inactive)
same,GI50,[22],43.7 µM (inactive)
same,GI50,[23],50.4 µM (inactive)
same,GI50,[24],86.3 µM (inactive)
same,GI50,[25],> 100 µM (inactive)
same,GI50,[26],74.3 µM (inactive)
same,GI50,[27],27.4 µM (inactive)
same,GI50,[28],40.6 µM (inactive)
same,GI50,[29],75.7 µM (inactive)
same,GI50,[30],> 100 µM (inactive)
same,GI50,[31],> 100 µM (inactive)
same,GI50,[32],26.5 µM (inactive)
same,GI50,[33],85.1 µM (inactive)
same,GI50,[34],73.6 µM (inactive)
same,GI50,[35],68.9 µM (inactive)
same,GI50,[36],32.9 µM (inactive)
same,GI50,[37],29.8 µM (inactive)
same,GI50,[38],96.4 µM (inactive)
same,GI50,[39],40.2 µM (inactive)
same,GI50,[40],43.8 µM (inactive)
same,GI50,[41],44.8 µM (inactive)
same,GI50,[42],65.9 µM (inactive)
same,GI50,[43],76.6 µM (inactive)
same,GI50,[44],70.1 µM (inactive)
same,GI50,[45],9.68 µM (inactive)
same,GI50,[46],37.2 µM (inactive)
same,GI50,[47],67.9 µM (inactive)
same,GI50,[48],40.2 µM (inactive)
same,GI50,[49],71.4 µM (inactive)
same,GI50,[50],> 100 µM (inactive)
same,GI50,[51],30.7 µM
same,GI50,[52],> 100 µM (inactive)
same,GI50,[53],85.9 µM (inactive)
same,GI50,[54],> 100 µM (inactive)
same,GI50,[55],13.1 µM (inactive)
same,GI50,[56],29.2 µM (inactive)
same,GI50,[57],> 100 µM (inactive)
C=C1CC2(C)CCC(OC(=O)C3(C)OC3C)C(C)(OC(C)=O)C2CC1=C(C)C (stereo unspecified),GI50,[1],> 100 µM (inactive)
same,GI50,[2],> 100 µM (inactive)
same,GI50,[3],> 100 µM (inactive)
same,GI50,[4],> 100 µM (inactive)
same,GI50,[5],> 100 µM (inactive)
same,GI50,[6],> 100 µM (inactive)
same,GI50,[7],> 10 µM (inactive)
same,GI50,[8],> 100 µM (inactive)
same,GI50,[9],> 100 µM (inactive)
same,GI50,[10],> 100 µM (inactive)
same,GI50,[11],> 100 µM (inactive)
same,GI50,[12],> 100 µM (inactive)
same,GI50,[13],> 100 µM (inactive)
same,GI50,[14],> 100 µM (inactive)
same,GI50,[15],> 100 µM (inactive)
same,GI50,[16],> 100 µM (inactive)
same,GI50,[58],> 100 µM (inactive)
same,GI50,[17],> 100 µM (inactive)
same,GI50,[18],> 10 µM (inactive)
same,GI50,[19],24.9 µM (inactive)
same,GI50,[20],> 100 µM (inactive)
same,GI50,[21],> 100 µM (inactive)
same,GI50,[22],> 100 µM (inactive)
same,GI50,[23],> 100 µM (inactive)
same,GI50,[24],> 100 µM (inactive)
same,GI50,[25],> 100 µM (inactive)
same,GI50,[26],> 100 µM (inactive)
same,GI50,[27],> 100 µM (inactive)
same,GI50,[28],> 100 µM (inactive)
same,GI50,[29],> 100 µM (inactive)
same,GI50,[30],> 100 µM (inactive)
same,GI50,[31],> 100 µM (inactive)
same,GI50,[33],> 100 µM (inactive)
same,GI50,[34],> 100 µM (inactive)
same,GI50,[35],> 100 µM (inactive)
same,GI50,[36],> 100 µM (inactive)
same,GI50,[37],> 100 µM (inactive)
same,GI50,[38],> 100 µM (inactive)
same,GI50,[39],> 100 µM (inactive)
same,GI50,[40],> 100 µM (inactive)
same,GI50,[41],> 100 µM (inactive)
same,GI50,[42],> 100 µM (inactive)
same,GI50,[43],> 100 µM (inactive)
same,GI50,[44],96.6 µM (inactive)
same,GI50,[45],> 100 µM (inactive)
same,GI50,[46],> 100 µM (inactive)
same,GI50,[47],> 100 µM (inactive)
same,GI50,[48],> 100 µM (inactive)
same,GI50,[49],> 100 µM (inactive)
same,GI50,[50],> 100 µM (inactive)
same,GI50,[51],> 100 µM
same,GI50,[52],> 100 µM (inactive)
same,GI50,[53],> 100 µM (inactive)
same,GI50,[54],> 100 µM (inactive)
same,GI50,[55],> 100 µM (inactive)
same,GI50,[56],> 100 µM (inactive)
same,GI50,[57],> 100 µM (inactive)
same,GI50,[59],> 100 µM (inactive)
COc1ccc(C(c2ccccc2)C(C)C(=O)c2c(C)cc(C)cc2C)cc1 (stereo unspecified),GI50,[16],37.8 µM (inactive) and 53.5 µM (inactive)
same,GI50,[22],94.2 µM (inactive) and 53.7 µM (inactive)
same,GI50,[60],42.5 µM (inactive) and 59 µM (inactive)
same,GI50,[25],57.7 µM (inactive)
same,GI50,[47],47.4 µM (inactive) and 56 µM (inactive)
same,GI50,[48],69.8 µM (inactive) and 79.8 µM (inactive)
c1ccncc1,GI50,[3],> 100 µM (inactive)
same,GI50,[21],> 100 µM (inactive)
same,GI50,[25],> 100 µM (inactive)
same,GI50,[61],> 100 µM (inactive)
same,GI50,[62],> 100 µM (inactive)
same,GI50,[26],> 100 µM (inactive)
same,GI50,[32],> 100 µM (inactive)
same,GI50,[41],> 100 µM (inactive)
same,GI50,[43],> 100 µM (inactive)
same,GI50,[45],85.5 µM (inactive)
same,GI50,[63],> 100 µM (inactive)
same,GI50,[49],> 100 µM (inactive)
same,GI50,[50],> 100 µM (inactive)
same,GI50,[51],> 100 µM
same,GI50,[55],> 100 µM (inactive)
